According to US20130217664A1, “NOVEL COMPOUNDS USEFUL FOR THE TREATMENT OF DEGENERATIVE AND INFLAMMATORY DISEASES” (priority 2012, published 2013):

Columns and labels:
[1] = tested on: pSTAT1(2)-luciferase reporter in HeLa cells triggered with human OSM; assay: JAK-STAT signalling assay; format: cell-based; conditions: Homo sapiens, HeLa, HeLa cells, pSTAT1(2)-luciferase reporter, human OSM 33 ng/mL; read-out: JAK-STAT IC50
How it was run: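 HeLa cells transiently co-transfected with pSTAT1(2)-luciferase and LacZ control reporter, preincubated with compound 60 min, then stimulated with human OSM (33 ng/mL final) overnight at 37 °C. Luciferase read by luminescence; percent inhibition from vehicle and no-trigger controls, EC50 from dose-response.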

[2] = tested on: BA/F3 cell line; assay: BA/F3 viability assay; conditions: Mus musculus, BaF3, 48 h, read-out: BA/F3 IC50
[3] = tested on: CTLL-2 cell line; assay: CTLL2 viability assay; format: cell-based; conditions: Mus musculus, IL-2 dependent CTLL2 viability, 24 h, ATP-lite
Source text: The protocol describes the methods to analyse the activity of compounds on their ability to sustain the IL2-dependent viability of CTLL2.
Final DMSO concentration was 0.1%.

[4] = target: T1, human JAK3 (Homo sapiens, UniProt P52333); assay: JAK3 inhibition assay; format: biochemical; conditions: recombinant human JAK3 catalytic domain; polyGT substrate
T1 construct: catalytic domain (amino acids 781-1124; catalog number PV3855); purchased Invitrogen PV3855
T1 sequence (P52333 781-1124): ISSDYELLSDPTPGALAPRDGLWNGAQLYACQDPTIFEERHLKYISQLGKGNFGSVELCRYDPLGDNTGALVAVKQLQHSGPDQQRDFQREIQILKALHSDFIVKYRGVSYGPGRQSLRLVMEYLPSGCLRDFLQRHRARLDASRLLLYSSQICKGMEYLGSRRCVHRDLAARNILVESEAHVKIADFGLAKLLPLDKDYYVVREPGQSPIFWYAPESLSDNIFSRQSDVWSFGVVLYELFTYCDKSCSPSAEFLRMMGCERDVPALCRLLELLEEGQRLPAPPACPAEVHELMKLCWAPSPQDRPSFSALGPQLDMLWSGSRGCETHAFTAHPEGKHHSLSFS
How it was run: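 Radiometric kinase assay: 0.5 ng JAK3 with 2.5 μg polyGT in Tris pH 7.5/MgCl2 buffer, 1 μM ATP plus 0.25 μCi 33P-γ-ATP, 1% DMSO, 45 min at 30 °C, stopped with phosphoric acid.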

[5] = target: T2, human TYK2 (Homo sapiens, UniProt P29597); assay: TYK2 inhibition assay; format: biochemical; conditions: recombinant human TYK2 catalytic domain, polyGT substrate
T2 construct: catalytic domain (amino acids 871-1187; catalog number 08-147); purchased Carna Biosciences 08-147
T2 sequence (P29597 871-1187): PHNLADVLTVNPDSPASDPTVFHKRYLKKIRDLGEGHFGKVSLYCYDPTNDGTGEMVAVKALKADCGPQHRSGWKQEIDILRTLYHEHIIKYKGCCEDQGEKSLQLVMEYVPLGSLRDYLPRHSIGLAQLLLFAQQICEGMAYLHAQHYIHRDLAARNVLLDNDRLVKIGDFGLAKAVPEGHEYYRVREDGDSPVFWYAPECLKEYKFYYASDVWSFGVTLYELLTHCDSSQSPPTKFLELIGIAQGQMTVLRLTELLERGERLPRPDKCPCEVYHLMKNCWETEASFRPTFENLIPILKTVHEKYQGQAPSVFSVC
How it was run: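 Radiometric kinase reaction run 90 min at 30 °C, stopped with phosphoric acid, washed and scintillation-counted.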

[6] = target: T3, human JAK1 (Homo sapiens, UniProt P23458); assay: JAK1 inhibition assay (polyGT substrate / Ulight-JAK1 peptide); format: biochemical; conditions: recombinant human JAK1 catalytic domain; polyGT or Ulight-JAK1 peptide assay
T3 construct: catalytic domain, amino acids 866-1154; catalog number PV4774; purchased Invitrogen PV4774
T3 sequence (P23458 866-1154): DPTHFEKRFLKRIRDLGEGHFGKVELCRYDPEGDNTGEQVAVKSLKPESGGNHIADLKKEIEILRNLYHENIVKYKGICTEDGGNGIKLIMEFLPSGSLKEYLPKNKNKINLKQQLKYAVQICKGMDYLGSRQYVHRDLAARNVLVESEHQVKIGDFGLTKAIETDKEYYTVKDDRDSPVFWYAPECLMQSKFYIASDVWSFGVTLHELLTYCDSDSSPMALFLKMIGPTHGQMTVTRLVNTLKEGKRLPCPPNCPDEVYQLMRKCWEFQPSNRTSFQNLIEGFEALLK
How it was run: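 Two formats. PolyGT radiometric: 45 min at 30 °C, stopped with phosphoric acid, counted as cpm. Ulight-JAK1 peptide: 60 min at room temperature, stopped with Eu-anti-phosphotyrosine/EDTA, read as RFU. Percent inhibition normalised to vehicle and 10 μM staurosporine.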

[7] = target: T4, human JAK2 (Homo sapiens, UniProt O60674); assay: JAK2 inhibition assay (polyGT substrate / Ulight-JAK1 peptide); format: biochemical; conditions: recombinant human JAK2 catalytic domain; polyGT or Ulight-JAK1 peptide assay
T4 construct: catalytic domain (amino acids 808-1132; catalog number PV4210); GST; purchased Invitrogen PV4210
T4 sequence (O60674 808-1132): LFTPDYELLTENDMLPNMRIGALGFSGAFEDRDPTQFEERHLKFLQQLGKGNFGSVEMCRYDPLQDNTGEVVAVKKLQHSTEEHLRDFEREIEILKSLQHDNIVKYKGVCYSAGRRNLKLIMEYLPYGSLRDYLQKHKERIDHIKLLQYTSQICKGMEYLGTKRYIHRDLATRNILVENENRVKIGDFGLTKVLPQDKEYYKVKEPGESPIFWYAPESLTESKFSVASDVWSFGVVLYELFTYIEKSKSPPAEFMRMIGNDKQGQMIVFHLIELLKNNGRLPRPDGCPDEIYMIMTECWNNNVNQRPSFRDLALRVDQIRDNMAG
How it was run: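 Radiometric: 0.025 mU JAK2 with 2.5 μg polyGT, 1 μM ATP plus ^33P-ATP in MOPS pH 7.5 buffer, 1% DMSO, 90 min at 30° C.; filter counting. Alternative TR-FRET format with Ulight-JAK1 peptide, 60 min at room temperature, Eu-anti-phosphotyrosine detection.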

Row | Compound | IC50 [1] [nM] | IC50 [2] [nM] | IC50 [3] [nM] | IC50 [4] [nM] | IC50 [5] [nM] | IC50 [6] [nM] | IC50 [7] [nM]
1 | CCc1cc(CNS(=O)(=O)C(C)C)ccc1N(C)c1cc2c(cn1)ncn2C [Compound 245, N-(3-ethyl-4-(methyl(1-methyl-1H-imidazo[4,5-c]pyridin-6-yl)amino)benzyl)propane-2-sulfonamide] | 501 to 1000 | 1000 to 5000 | > 1000 | 101 to 500 | 101 to 500 | 0.01 to 100 | –
2 | CCc1cc(C2=CCN(C(=O)COC)CC2)ccc1N(C)c1cc2c(cn1)ncn2C [Compound 199, 1-(4-(3-ethyl-4-(methyl(1-methyl-1H-imidazo[4,5-c]pyridin-6-yl)amino)phenyl)-5,6-dihydropyridin-1(2H)-yl)-2-methoxyethanone] | 1 to 500 | 1000 to 5000 | > 1000 | 0.01 to 100 | 0.01 to 100 | 0.01 to 100 | –
3 | CCc1cc(CNS(=O)(=O)N2CCCCC2)ccc1N(C)c1cc2c(cn1)ncn2C [Compound 243, N-(3-ethyl-4-(methyl(1-methyl-1H-imidazo[4,5-c]pyridin-6-yl)amino)benzyl)piperidine-1-sulfonamide] | 1 to 500 | 1000 to 5000 | > 1000 | 101 to 500 | 101 to 500 | 0.01 to 100 | –
4 | CCc1cc(C2=CCN(C(=O)CC#N)CC2)ccc1N(C)c1cc2c(cn1)ncn2C [Compound 195, 3-(4-(3-Ethyl-4-(methyl(1-methyl-1H-imidazo[4,5-c]pyridin-6-yl)amino)phenyl)-5,6-dihydropyridin-1(2H)-yl)-3-oxopropanenitrile] | 501 to 1000 | 1000 to 5000 | > 1000 | 101 to 500 | 0.01 to 100 | 0.01 to 100 | –
5 | CCc1cc(C2CCOCC2)ccc1N(C)c1cc2c(cn1)ncn2C [Compound 186, N-(2-Ethyl-4-(tetrahydro-2H-pyran-4-yl)phenyl)-N,1-dimethyl-1H-imidazo[4,5-c]pyridin-6-amine] | 1 to 500 | 1000 to 5000 | > 1000 | 101 to 500 | 0.01 to 100 | 0.01 to 100 | –
6 | CCc1cc(CNS(=O)(=O)N(C)C)ccc1N(C)c1cc2c(cn1)ncn2C [Compound 375, Dimethyl amino-N-{3-Ethyl-4-[methyl-(1-methyl-1H-imidazo[4,5-c]pyridin-6-yl)-amino]-benzyl}-sulfonamide] | – | 1000 to 5000 | > 1000 | 101 to 500 | 101 to 500 | 0.01 to 100 | 0.01 to 100
7 | CCc1cc(CC#N)ccc1N(C)c1cc2c(cn1)ncn2C [Compound 406, {3-Ethyl-4-[methyl-(1-methyl-1H-imidazo[4,5-c]pyridin-6-yl)-amino]-phenyl}-acetonitrile] | – | 1000 to 5000 | 501 to 1000 | 0.01 to 100 | 0.01 to 100 | 0.01 to 100 | 0.01 to 100
8 | CCc1cc(C(C#N)N2CCC2)ccc1N(C)c1cc2c(cn1)ncn2C (stereo not drawn) [Compound 394] | – | 1000 to 5000 | > 1000 | 101 to 500 | 0.01 to 100 | 0.01 to 100 | 0.01 to 100
9 | CN(c1cc2c(cn1)ncn2C)c1c(F)cc(CC#N)cc1F [Compound 405, {3,5-Difluoro-4-[methyl-(1-methyl-1H-imidazo[4,5-c]pyridin-6-yl)-amino]-phenyl}-acetonitrile] | – | 1000 to 5000 | > 1000 | 501 to 1000 | 0.01 to 100 | 0.01 to 100 | 0.01 to 100
10 | CCc1cc(C2CN(S(=O)(=O)CC(F)(F)F)C2)ccc1N(C)c1cc2c(cn1)ncn2C [Compound 352, {2-Ethyl-4-[1-(2,2,2-trifluoro-ethanesulfonyl)-azetidin-3-yl]-phenyl}-methyl-(1-methyl-1H-imidazo[4,5-c]pyridin-6-yl)-amine] | – | > 5000 | > 1000 | 0.01 to 100 | 0.01 to 100 | 0.01 to 100 | 0.01 to 100
